# From patent US8680139B2 (Progenra, priority 2009, dated 2014)
# Molecular target: T1, USP7 (Homo sapiens, UniProt Q93009)
# T1 construct: full length human USP7 protein; made in house
# Experiment: USP7, Ub-PLA2 assay
# Assay type: biochemical
# Conditions: Ub-PLA2 / NBD C6-HPC fluorescence, 30 minute preincubation; read-out: EC50 for inhibition of USP7
# Method in brief: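 Compounds tested against USP7 with DMSO vehicle control and NEM-treated wells as background. Fluorescence (RFU) read-out; % inhibition normalized per plate to mean DMSO and NEM controls.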
# T1 sequence (Q93009 whole entry): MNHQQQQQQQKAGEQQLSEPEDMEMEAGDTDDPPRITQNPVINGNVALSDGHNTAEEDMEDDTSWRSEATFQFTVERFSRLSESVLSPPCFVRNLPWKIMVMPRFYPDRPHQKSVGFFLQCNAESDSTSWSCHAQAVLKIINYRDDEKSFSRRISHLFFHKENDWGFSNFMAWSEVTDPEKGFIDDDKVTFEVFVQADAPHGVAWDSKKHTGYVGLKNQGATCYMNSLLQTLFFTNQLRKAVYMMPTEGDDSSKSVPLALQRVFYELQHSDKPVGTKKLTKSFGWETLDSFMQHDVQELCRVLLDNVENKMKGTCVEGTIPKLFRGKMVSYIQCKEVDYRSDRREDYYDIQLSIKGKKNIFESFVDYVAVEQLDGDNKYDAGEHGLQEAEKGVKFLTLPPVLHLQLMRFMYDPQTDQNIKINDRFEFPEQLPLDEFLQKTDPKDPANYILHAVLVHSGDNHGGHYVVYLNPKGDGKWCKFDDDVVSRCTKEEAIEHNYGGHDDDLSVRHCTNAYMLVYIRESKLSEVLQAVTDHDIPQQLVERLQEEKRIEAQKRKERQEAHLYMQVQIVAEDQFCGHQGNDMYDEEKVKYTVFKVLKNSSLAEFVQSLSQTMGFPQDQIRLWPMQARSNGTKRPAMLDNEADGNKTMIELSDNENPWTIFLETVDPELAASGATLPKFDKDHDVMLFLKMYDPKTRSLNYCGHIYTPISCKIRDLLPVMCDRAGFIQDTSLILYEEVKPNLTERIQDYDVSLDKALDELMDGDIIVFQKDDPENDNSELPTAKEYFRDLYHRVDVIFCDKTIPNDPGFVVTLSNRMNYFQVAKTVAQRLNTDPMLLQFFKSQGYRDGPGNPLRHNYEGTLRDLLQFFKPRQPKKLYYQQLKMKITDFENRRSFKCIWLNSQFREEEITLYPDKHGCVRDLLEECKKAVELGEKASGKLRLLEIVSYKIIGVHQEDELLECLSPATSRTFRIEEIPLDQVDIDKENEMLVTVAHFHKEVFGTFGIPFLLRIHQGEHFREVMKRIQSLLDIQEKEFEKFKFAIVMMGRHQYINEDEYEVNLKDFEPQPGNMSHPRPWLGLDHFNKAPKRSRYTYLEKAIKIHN
row,EC50,Compound
1,> 10 µM,"CC(=O)c1cc([N+](=O)[O-])c(Sc2ccncc2Cl)s1 [Example 39, 1-[5-[(3-chloro-4-pyridyl)sulfanyl]-4-nitro-2-thienyl]ethanone]"
2,≤ 1 µM,"O=C(NCCc1ccccc1)c1cc([N+](=O)[O-])c(Sc2c(Cl)cncc2Cl)s1 [Example 96, 5-((3,5-dichloropyridin-4-yl)thio)-4-nitro-N-phenethylthiophene-2-carboxamide]"
3,≤ 1 µM,"COc1ccc(NC(=O)c2cc([N+](=O)[O-])c(Sc3c(Cl)cncc3Cl)s2)c(C)c1 [Example 132, 5-((3,5-dichloropyridin-4-yl)thio)-N-(4-methoxy-2-methylphenyl)-4-nitrothiophene-2-carboxamide]"
4,≤ 1 µM,"O=C(NCc1ccc(Cl)cc1)c1cc([N+](=O)[O-])c(Sc2c(Cl)cncc2Cl)s1 [Example 106, N-(4-chlorobenzyl)-5-((3,5-dichloropyridin-4-yl)thio)-4-nitrothiophene-2-carboxamide]"
5,1 to 10 µM,"O=C(NC1CCN(C2CC2)CC1)c1cc([N+](=O)[O-])c(Sc2c(Cl)cncc2Cl)s1 [Example 231, N-(1-cyclopropylpiperidin-4-yl)-5-((3,5-dichloropyridin-4-yl)thio)-4-nitrothiophene-2-carboxamide]"
6,≤ 1 µM,"O=C(NCCCN1CCC(CO)CC1)c1cc([N+](=O)[O-])c(Sc2c(Cl)cncc2Cl)s1 [Example 227, 5-((3,5-dichloropyridin-4-yl)thio)-N-(3-(4-(hydroxymethyl)piperidin-1-yl)propyl)-4-nitrothiophene-2-carboxamide]"
7,≤ 1 µM,"O=C(NC12CC3CC(CC(O)(C3)C1)C2)c1cc([N+](=O)[O-])c(Sc2c(Cl)cncc2Cl)s1 [Example 176, 5-((3,5-dichloropyridin-4-yl)thio)-N-((1r,3s,5R,7S)-3-hydroxyadamantan-1-yl)-4-nitrothiophene-2-carboxamide]"
8,≤ 1 µM,"COc1cc(NC(=O)c2cc([N+](=O)[O-])c(Sc3c(Cl)cncc3Cl)s2)ccc1OCCCN(C)C [Example 240, 5-((3,5-dichloropyridin-4-yl)thio)-N-(4-(3-(dimethylamino)propoxy)-3-methoxyphenyl)-4-nitrothiophene-2-carboxamide]"
9,1 to 10 µM,"O=C(NCc1ccco1)c1cc([N+](=O)[O-])c(Sc2c(Cl)cncc2Cl)s1 [Example 52, 5-((3,5-dichloropyridin-4-yl)thio)-N-(furan-2-ylmethyl)-4-nitrothiophene-2-carboxamide]"
10,≤ 1 µM,"O=C(Nc1ccc(F)cc1C(F)(F)F)c1cc([N+](=O)[O-])c(Sc2c(Cl)cncc2Cl)s1 [Example 139, 5-((3,5-dichloropyridin-4-yl)thio)-N-(4-fluoro-2-(trifluoromethyl)phenyl)-4-nitrothiophene-2-carboxamide]"
11,≤ 1 µM,"O=C(NCCN1CCN(Cc2ccccc2)CC1)c1cc([N+](=O)[O-])c(Sc2c(Cl)cncc2Cl)s1 [Example 117, N-(2-(4-benzylpiperazin-1-yl)ethyl)-5-((3,5-dichloropyridin-4-yl)thio)-4-nitrothiophene-2-carboxamide]"
12,1 to 10 µM,"O=C(NCCCN1CCCCC1)c1cc([N+](=O)[O-])c(Sc2ccc(Cl)cc2Cl)s1 [Example 249, 5-((2,4-dichlorophenyl)thio)-4-nitro-N-(3-(piperidin-1-yl)propyl)thiophene-2-carboxamide]"
13,1 to 10 µM,"O=C(Nc1cc(-c2ccccc2)n[nH]1)c1cc([N+](=O)[O-])c(Sc2c(Cl)cncc2Cl)s1 [Example 71, 5-((3,5-dichloropyridin-4-yl)thio)-4-nitro-N-(3-phenyl-1H-pyrazol-5-yl)thiophene-2-carboxamide]"
14,≤ 1 µM,"O=C(Nc1ccc(Cl)cc1Cl)c1cc([N+](=O)[O-])c(Sc2c(Cl)cncc2Cl)s1 [Example 141, N-(2,4-dichlorophenyl)-5-((3,5-dichloropyridin-4-yl)thio)-4-nitrothiophene-2-carboxamide]"
15,1 to 10 µM,"CN1CCC(NC(=O)Nc2cc([N+](=O)[O-])c(Sc3c(Cl)cncc3Cl)s2)CC1 [Example 270, 1-(5-((3,5-dichloropyridin-4-yl)thio)-4-nitrothiophen-2-yl)-3-(1-methylpiperidin-4-yl)urea]"
16,≤ 1 µM,"CS(=O)(=O)c1ccc(CNC(=O)c2cc([N+](=O)[O-])c(Sc3c(Cl)cncc3Cl)s2)cc1 [Example 102, 5-((3,5-dichloropyridin-4-yl)thio)-N-(4-(methylsulfonyl)benzyl)-4-nitrothiophene-2-carboxamide]"
17,1 to 10 µM,"CC(=O)c1cc([N+](=O)[O-])c(Sc2ccccc2C(F)(F)F)s1 [Example 4, 1-{4-Nitro-5-[2-(trifluoromethyl)phenylsulfanyl]-2-thienyl}ethanone]"
18,1 to 10 µM,"COc1cccc(CN(C)C(=O)c2cc([N+](=O)[O-])c(Sc3c(Cl)cncc3Cl)s2)c1 [Example 67, 5-((3,5-dichloropyridin-4-yl)thio)-N-(3-methoxybenzyl)-N-methyl-4-nitrothiophene-2-carboxamide]"
19,≤ 1 µM,"O=C(NCc1ccc2c(c1)OCCO2)c1cc([N+](=O)[O-])c(Sc2c(Cl)cncc2Cl)s1 [Example 147, 5-((3,5-dichloropyridin-4-yl)thio)-N-((2,3-dihydrobenzo[b][1,4]dioxin-6-yl)methyl)-4-nitrothiophene-2-carboxamide]"
20,1 to 10 µM,"C[S+]([O-])CCCNC(=O)c1cc([N+](=O)[O-])c(Sc2c(Cl)cncc2Cl)s1 (stereo not drawn) [Example 244, 5-((3,5-dichloropyridin-4-yl)thio)-N-(3-(methylsulfinyl)propyl)-4-nitrothiophene-2-carboxamide]"
21,≤ 1 µM,"CS(=O)(=O)c1ccc(NC(=O)c2cc(C#N)c(Sc3c(Cl)cncc3Cl)s2)cc1 [Example 208, 4-cyano-5-((3,5-dichloropyridin-4-yl)thio)-N-(4-(methylsulfonyl)phenyl)thiophene-2-carboxamide]"
22,1 to 10 µM,"COCCN1CC(NC(=O)c2cc([N+](=O)[O-])c(Sc3c(Cl)cncc3Cl)s2)CC1=O (stereo not drawn) [Example 93, 5-((3,5-dichloropyridin-4-yl)thio)-N-(1-(2-methoxyethyl)-5-oxopyrrolidin-3-yl)-4-nitrothiophene-2-carboxamide]"
23,1 to 10 µM,"O=C(c1cc([N+](=O)[O-])c(Sc2c(Cl)cncc2Cl)s1)N1CCN(CCO)CC1 [Example 61, (5-((3,5-dichloropyridin-4-yl)thio)-4-nitrothiophen-2-yl)(4-(2-hydroxyethyl)piperazin-1-yl)methanone]"
24,> 10 µM,"CC(=O)c1cc([N+](=O)[O-])c([S+]([O-])c2ccc(Cl)cc2Cl)s1 (stereo not drawn) [Example 34, 1-[5-(2,4-dichlorophenyl)sulfinyl-4-nitro-2-thienyl]ethanone]"
25,1 to 10 µM,"CC(=O)c1cc([N+](=O)[O-])c(S(=O)(=O)c2ccc(Cl)cc2Cl)s1 [Example 35, 1-[5-(2,4-dichlorophenyl)sulfonyl-4-nitro-2-thienyl]ethanone]"
26,≤ 1 µM,"O=C(NC1CC1)c1cc([N+](=O)[O-])c(Sc2c(Cl)cncc2Cl)s1 [Example 124, N-cyclopropyl-5-((3,5-dichloropyridin-4-yl)thio)-4-nitrothiophene-2-carboxamide]"
27,≤ 1 µM,"O=C(NCCc1ccc(F)cc1)c1cc([N+](=O)[O-])c(Sc2c(Cl)cncc2Cl)s1 [Example 120, 5-((3,5-dichloropyridin-4-yl)thio)-N-(4-fluorophenethyl)-4-nitrothiophene-2-carboxamide]"
